Earlier results in patent US20050079205A1, “Oleamide-containing composition for animal consumption” (priority 2003, published 2005).

Experiments:
lactating Jersey cows = conditions: feed supplemented with up to 3.5% oleamide; cited from earlier work
Holstein cows = conditions: 4.2% oleamide through feed or ruminal cannula; cited from earlier work

## CCCCCCCC/C=C\CCCCCCCC(N)=O [oleamide, cis-9-octadecenioamide]
Lactating Jersey cows
  dry matter intake: reduction in dry matter intake
Holstein cows
  dry matter intake: reduction in dry matter intake
